Measured values reported in ChEMBL document CHEMBL4340545, “Identification of potent farnesoid X receptor (FXR) antagonist showing favorable PK profile and distribution toward target tissues: Comprehensive understanding of structure-activity relationship of FXR antagonists” (Bioorg Med Chem, 2019).

Experiments:
[1] = Drug concentration in ileum of Sprague-Dawley rat at 30 mg/kg, po dissolved in 40% HP-beta-CD measured after 360 mins by LC-MS/MS analysis; type: ADME, organism-based; conditions: read-out: Drug uptake
[2] = Volume of distribution at steady state in Sprague-Dawley rat at 1 mg/ml/kg, iv dissolved in 10% HP-beta-CD; type: ADME, organism-based; conditions: in vivo, 1 mg/kg, read-out: Vdss
[3] = AUC (0 to 360 mins) in Sprague-Dawley rat at 30 mg/5 ml/kg, po dissolved in 40% HP-beta-CD by trapezoidal method; type: ADME, organism-based; set-up: time < 6 hr, dose 5 ml/kg, route oral; conditions: in vivo, 30 mg/kg
Bile acid receptor [4] = molecular target: T1, Bile acid receptor (Homo sapiens, UniProt Q96RI1); assay: Antagonist activity at human FXR expressed in Huh7 cells assessed as inhibition of CDCA-induced FXR response element driven luciferase activity after 24 hrs; type: cell-based
T1 sequence (Q96RI1 whole entry): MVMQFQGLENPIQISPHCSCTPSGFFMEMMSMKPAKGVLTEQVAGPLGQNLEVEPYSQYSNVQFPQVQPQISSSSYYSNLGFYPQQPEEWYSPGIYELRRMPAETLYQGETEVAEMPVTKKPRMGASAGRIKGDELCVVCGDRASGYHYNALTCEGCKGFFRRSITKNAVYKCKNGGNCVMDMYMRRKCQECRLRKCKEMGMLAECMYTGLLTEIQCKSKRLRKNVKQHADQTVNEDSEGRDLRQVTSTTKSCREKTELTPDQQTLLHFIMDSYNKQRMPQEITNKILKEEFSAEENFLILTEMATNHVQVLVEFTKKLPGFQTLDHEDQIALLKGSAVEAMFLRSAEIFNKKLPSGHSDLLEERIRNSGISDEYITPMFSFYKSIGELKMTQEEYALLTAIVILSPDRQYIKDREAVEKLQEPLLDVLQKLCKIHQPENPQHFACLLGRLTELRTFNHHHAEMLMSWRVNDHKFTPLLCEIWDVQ

[5] = Cmax in Sprague-Dawley rat at 30 mg/5 ml/kg, po dissolved in 40% HP-beta-CD; type: ADME, organism-based; set-up: dose 5 ml/kg, route oral; conditions: in vivo, 30 mg/kg
[6] = AUC (0 to 360 mins) in Sprague-Dawley rat at 1 mg/ml/kg, iv dissolved in 10% HP-beta-CD by LC-MS/MS analysis; type: ADME, organism-based; set-up: dose 1 mg/ml/kg, time < 6 hr, route intravenous; conditions: in vivo, 1 mg/kg
[7] = Tmax in Sprague-Dawley rat at 30 mg/5 ml/kg, po dissolved in 40% HP-beta-CD; type: ADME, organism-based; conditions: in vivo, 30 mg/kg
[8] = Drug concentration in liver of Sprague-Dawley rat at 30 mg/kg, po dissolved in 40% HP-beta-CD measured after 360 mins by LC-MS/MS analysis; type: ADME, organism-based; conditions: read-out: Drug uptake
[9] = Oral bioavailability in Sprague-Dawley rat at 30 mg/5 ml/kg dissolved in 40% HP-beta-CD; type: ADME, organism-based; conditions: in vivo, 30 mg/kg
[10] = Terminal half life in Sprague-Dawley rat at 1 mg/ml/kg, iv dissolved in 10% HP-beta-CD measured after 60 to 360 min after administration; type: ADME, organism-based; conditions: in vivo, 1 mg/kg
[11] = Drug excretion in Sprague-Dawley rat urine at 1 mg/ml/kg, iv dissolved in 10% HP-beta-CD by LC-MS/MS analysis; type: ADME, organism-based; conditions: 1 mg/kg, read-out: Drug excretion
Bile acid receptor [12] = molecular target: T1, Bile acid receptor; assay: Antagonist activity at GST-tagged FXR LBD (unknown origin) assessed as inhibition of GW4064-induced fluorecein-labeled SRC2-2 coactivator recruitment by Lanthascreen TR-FRET assay
Huh-7 = assay: Cytotoxicity against human HuH7 cells assessed as reduction in cell viability incubated for 24 hrs by MTT assay; type: cell-based; conditions: Huh-7, 24 h
[13] = Ratio of drug concentration in ileum to plasma of Sprague-Dawley rat at 30 mg/kg, po dissolved in 40% HP-beta-CD measured after 360 mins by LC-MS/MS analysis; type: ADME, organism-based
[14] = Ratio of drug concentration in liver to plasma of Sprague-Dawley rat at 30 mg/kg, po dissolved in 40% HP-beta-CD measured after 360 mins by LC-MS/MS analysis; type: ADME, organism-based

Row | SMILES | IC50 (Bile acid receptor [4]) [nM] | IC50 (Bile acid receptor [12]) [nM] | IC50 (Huh-7) [nM] | further results
1 | Cc1ccc2nc([C@H](Cc3ccc(C#N)cc3)N3C(=O)CN(c4ccc(Oc5ccccc5)cc4)C3=O)n(C)c2c1 | 781 | 7100 | > 100000 | –
2 | Cc1ccc2nc([C@H](CC3CCN(S(=O)(=O)C(C)C)CC3)N3C(=O)CN(c4ccc(Oc5ccccc5)cc4)C3=O)n(C)c2c1 | 59.8 | 126000 | > 100000 | –
3 | Cc1ccc2nc([C@H](CC3CCN(C(=O)C(C)C)CC3)NC(=O)Nc3ccc(Oc4ccccc4)cc3)n(C)c2c1 | > 20000 | > 400000 | > 100000 | –
4 | Cc1ccc2nc([C@H](CC3CCN(C(=O)C(C)C)CC3)NC(=O)c3ccc(Oc4ccccc4)cc3)n(C)c2c1 | > 20000 | > 400000 | > 100000 | –
5 | Cc1ccc2nc([C@H](CC3CCN(C(=O)NC(C)C)CC3)N3C(=O)CN(c4ccc(Oc5ccccc5)cc4)C3=O)n(C)c2c1 | 18.3 | 1500 | > 100000 | –
6 | Cc1ccc2nc([C@H](CC3CCN(C(=O)C(C)C)CC3)N3CC(=O)N(c4ccc(Oc5ccccc5)cc4)CC3=O)n(C)c2c1 | 859 | 15000 | > 100000 | –
7 | Cc1ccc2nc([C@H](Cc3ccc(C(N)=O)cc3)N3C(=O)CN(c4ccc(Oc5ccccc5)cc4)C3=O)n(C)c2c1 | 6240 | 27300 | > 100000 | –
8 | Cc1ccc2nc([C@H](CC3CCN(C(=O)C(C)C)CC3)N3C(=O)CN(c4ccc(Oc5ccccc5)cc4)C3=O)n(CC(C)C)c2c1 | 2.4 | 330 | > 100000 | –
9 | Cc1ccc2nc([C@H](CC3CCN(C(=O)C(C)C)CC3)N3C(=O)CN(c4ccc(Oc5ccccc5)cc4)C3=O)n(-c3ccc(F)cc3)c2c1 | 978 | 2900 | > 100000 | –
10 | Cc1ccc2nc([C@H](CC3CCN(C(=O)C(C)C)CC3)N3C(=O)CN(c4ccc(Oc5ccc(Cl)cc5)cc4)C3=O)n(C)c2c1 | 9.3 | 27 | > 100000 | –
11 | Cc1ccc2c(c1)nc([C@H](CC1CCN(C(=O)C(C)C)CC1)N1C(=O)CN(c3ccc(Oc4ccccc4)cc3)C1=O)n2C | < 0.001 | 51 | > 100000 | –
12 | Cc1ccc2nc([C@H](Cc3ccc(C(=O)NC(C)C)cc3)N3C(=O)CN(c4ccc(Oc5ccccc5)cc4)C3=O)n(C)c2c1 | 2690 | 38700 | > 100000 | –
13 | Cc1ccc2nc([C@H](CC3CCN(C(=O)C(C)C)CC3)N3C(=O)CN(c4ccc(OC5CCCCC5)cc4)C3=O)n(C)c2c1 | 53 | 180 | 64300 | –

Further lines, with some results ahead:

Row | IC50 (Bile acid receptor [4]) [nM] | IC50 (Bile acid receptor [12]) [nM] | SMILES | IC50 (Huh-7) [nM] | further results
14 | < 0.001 | – | Cc1ccc2nc([C@H](CC3CCN(C(=O)C(C)C)CC3)N3C(=O)CN(c4ccc(Oc5ccccc5)cc4)C3=O)n(C)c2c1 | – | concentration at 6 h [1]: 135 ng/g; Vd [2]: 8.9 L/kg; AUC(0-t) at 6 h [3]: 146 ng·h/mL; Cmax [5]: 53.4 ng/mL; AUC(0-t) at 6 h [6]: 182 ng·h/mL; Tmax [7]: 0.5 h; concentration at 6 h [8]: 225 ng/g; bioavailability [9]: 2.76%; half-life ([10]; read-out: beta t1/2): 2.07 h; dose excreted [11]: 0.64%
15 | 1100 | 2800 | CCN(CC)C(=O)c1ccc(C[C@@H](c2nc3ccc(C)cc3n2C)N2C(=O)CN(c3ccc(Oc4ccccc4)cc3)C2=O)cc1 | > 100000 | –
16 | 0.05 | 35 | Cc1ccc2nc([C@H](CC3CCN(C(=O)C(C)C)CC3)N3C(=O)CN(c4ccc(Oc5ccc(F)cc5)cc4)C3=O)n(C)c2c1 | > 100000 | –
17 | > 20000 | > 400000 | Cc1ccc2nc([C@H](Cc3ccc(Cl)cc3)N3C(=O)CN(c4ccc(Oc5ccccc5)cc4)C3=O)n(C)c2c1 | > 100000 | –
18 | 81 | > 400000 | Cc1ccc2nc([C@H](Cc3ccccc3)N3C(=O)CN(c4ccc(Oc5ccccc5)cc4)C3=O)n(C)c2c1 | > 100000 | –
19 | 41 | 2700 | Cc1ccc2nc([C@@H](CC3CCN(C(=O)C(C)C)CC3)N3C(=O)CN(c4ccc(Oc5ccccc5)cc4)C3=O)n(C)c2c1 | > 100000 | –
20 | 799 | 4800 | Cc1ccc2nc([C@H](CC3CCN(C(=O)C(C)C)CC3)N3CCN(c4ccc(Oc5ccccc5)cc4)C3=O)n(C)c2c1 | > 100000 | –
21 | < 0.001 | 7 | COc1ccc(Oc2ccc(N3CC(=O)N([C@@H](CC4CCN(C(=O)C(C)C)CC4)c4nc5ccc(C)cc5n4C)C3=O)cc2)cc1 | > 100000 | Kp at 6 h [13]: 13; Kp at 6 h [14]: 15; concentration at 6 h [1]: 1370 ng/g; Vd [2]: 3.86 L/kg; AUC(0-t) at 6 h [3]: 1580 ng·h/mL; AUC(0-t) at 6 h [6]: 292 ng·h/mL; Tmax [7]: 2 h; concentration at 6 h [8]: 1540 ng/g; half-life [10]: 1.37 h; dose excreted [11]: 0.23%
